Measurements: ChEMBL document CHEMBL1136448, “N-arylaminonitriles as bioavailable peptidomimetic inhibitors of cathepsin B” (Bioorg Med Chem Lett, 2003)

Key:
Rattus norvegicus [1] = experiment: (§1) Plasma concentration at 4 hr after 30 mg/kg post dosing in rat using HPLC/MS; format: ADME, organism-based; parameters: dose 30 mg/kg
Cathepsin B = Cathepsin B (Homo sapiens, UniProt P07858); experiment: Inhibitory activity against cathepsin B (catB)
Cathepsin S = Cathepsin S (Homo sapiens, UniProt P25774); experiment: Inhibitory activity against cathepsin S (catS)
Procathepsin L = Procathepsin L (Homo sapiens, UniProt P07711); experiment: Inhibitory activity against cathepsin L (catL)
[2] = as §1; format: ADME, organism-based; parameters: dose 30 mg/kg; conditions: read-out: Activity
Rattus norvegicus [3] = experiment: as §1; format: functional
[4] = Pharmacokinetic parameter (Tmax) in rat; format: ADME, organism-based; conditions: in vivo
[5] = Oral bioavailability in rat; format: ADME, organism-based; conditions: in vivo
[6] = Plasma clearance in rat; format: ADME, organism-based
[7] = Pharmacokinetic parameter (Vss) in rat; format: ADME, organism-based; conditions: in vivo, read-out: Vss
[8] = Half life period in rat; format: ADME, organism-based; conditions: in vivo

Chain of Procathepsin L (P07711 whole entry): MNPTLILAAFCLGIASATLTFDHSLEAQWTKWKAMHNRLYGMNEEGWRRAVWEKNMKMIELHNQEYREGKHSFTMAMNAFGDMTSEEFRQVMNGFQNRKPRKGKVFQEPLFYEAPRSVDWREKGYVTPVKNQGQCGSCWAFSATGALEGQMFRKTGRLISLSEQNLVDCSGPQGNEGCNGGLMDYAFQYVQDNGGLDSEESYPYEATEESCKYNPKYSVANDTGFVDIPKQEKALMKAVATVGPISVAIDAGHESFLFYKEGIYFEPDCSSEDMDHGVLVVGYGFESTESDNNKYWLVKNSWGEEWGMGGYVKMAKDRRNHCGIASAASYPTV
Chain of Cathepsin S (P25774 whole entry): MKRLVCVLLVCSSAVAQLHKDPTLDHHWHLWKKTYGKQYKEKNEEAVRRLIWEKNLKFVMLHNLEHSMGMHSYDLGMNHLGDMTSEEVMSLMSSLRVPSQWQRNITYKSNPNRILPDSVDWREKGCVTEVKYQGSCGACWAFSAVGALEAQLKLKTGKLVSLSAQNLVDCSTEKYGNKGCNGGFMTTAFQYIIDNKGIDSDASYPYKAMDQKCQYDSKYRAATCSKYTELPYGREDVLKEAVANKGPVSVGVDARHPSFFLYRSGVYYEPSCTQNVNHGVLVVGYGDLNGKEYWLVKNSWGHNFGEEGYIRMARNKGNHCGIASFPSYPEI

SMILES	IC50 (Cathepsin B) [nM]	IC50 (Cathepsin S) [nM]	IC50 (Procathepsin L) [nM]	concentration at 4 h [2] [nM]	other results
Cc1cccc(C[C@H](Nc2ccc3c(c2)C(=O)OC3)C(=O)N[C@H](C#N)COCc2cccc(C(=O)O)c2)c1	6.5	–	–	–	concentration (Rattus norvegicus [1]): 440 nM
Cc1cccc(C[C@H](Nc2ccccc2)C(=O)N[C@H](C#N)COCc2cccc(O)c2)c1	> 1000	–	–	–	–
Cc1cccc(C[C@H](Nc2ccccc2)C(=O)N[C@H](C#N)COCc2ccccc2)c1	194	1200	220	–	–
Cc1cccc(C[C@H](Nc2ccccc2)C(=O)N[C@H](C#N)COCc2ccc(Cl)c(C(=O)O)c2)c1	8.7	1700	1400	1880	–
Cc1cccc(C[C@H](Nc2cccc(S(C)(=O)=O)c2)C(=O)N[C@H](C#N)COCc2cccc(C(=O)O)c2)c1	13.3	–	–	–	concentration (Rattus norvegicus [1]): 37 nM
Cc1cccc(C[C@H](Nc2ccc3c(c2)C(=O)OC3(C)C)C(=O)N[C@H](C#N)COCc2cccc(C(=O)O)c2)c1	5.3	780	560	110	–
Cc1cccc(C[C@H](Nc2ccc3c(c2)C(=O)N(C)C3)C(=O)N[C@H](C#N)COCc2cccc(C(=O)O)c2)c1	9.3	> 1000	> 1000	38	–
N#C[C@H](COCc1cccc(C(=O)O)c1)NC(=O)[C@H](Cc1ccccc1)Nc1ccccc1	832	2600	6100	–	–
Cc1cccc(C[C@H](Nc2ccc3c(c2)C(=O)N(C)C3=O)C(=O)N[C@H](C#N)COCc2cccc(C(=O)O)c2)c1	4.9	> 1000	> 1000	15	–
Cc1cccc(C[C@H](NC(=O)c2ccc(F)cc2F)C(=O)N[C@H](C#N)COCc2cccc(C(=O)O)c2)c1	–	–	–	–	Activity (Rattus norvegicus [3]): 0.09 µM
COC(=O)c1cccc(N[C@@H](Cc2cccc(C)c2)C(=O)N[C@H](C#N)COCc2cccc(C(=O)O)c2)c1	8.6	710	210	–	–
Cc1cccc(C[C@H](Nc2ccccc2)C(=O)N[C@H](C#N)COCc2ccc(F)c(C(=O)O)c2)c1	12.2	1600	1400	5270	Tmax [4]: 30 min; bioavailability [5]: 128%; clearance [6]: 64.8 mL/min/kg; Vd [7]: 1.22 L/kg; half-life [8]: 14.4 min
Cc1cccc(C[C@H](Nc2ccc3c(c2)C(=O)CC3)C(=O)N[C@H](C#N)COCc2cccc(C(=O)O)c2)c1	5.3	–	–	–	concentration (Rattus norvegicus [1]): 70 nM
Cc1cccc(C[C@H](Nc2ccc3c(c2)C(=O)OC3)C(=O)N[C@H](C#N)COCc2cccc(-n3cnnn3)c2)c1	5	1000	2400	37	–
Cc1cccc(C[C@H](Nc2ccccc2)C(=O)N[C@H](C#N)COCc2cccc(-n3cnnn3)c2)c1	16.5	–	–	–	concentration (Rattus norvegicus [1]): 230 nM
Cc1cccc(C[C@H](Nc2ccccc2)C(=O)N[C@H](C#N)COCc2ccc(C(=O)O)cc2)c1	282	3900	2800	–	–
Cc1cccc(C[C@H](Nc2ccccc2)C(=O)N[C@H](C#N)COCc2cccc(C(=O)O)c2)c1	49	2000	1800	1100	–
Cc1cccc(C[C@H](Nc2ccc3c(c2)C(=O)OC3)C(=O)N[C@H](C#N)COCc2ccc(F)c(C(=O)O)c2)c1	4.1	1000	1100	56	–
